Data set [1] concerns the target T1, E. coli purine nucleoside phosphorylase (PNP) (Escherichia coli, UniProt P0ABP8).
T1 construct: gene deoD
T1 sequence (P0ABP8 2-239): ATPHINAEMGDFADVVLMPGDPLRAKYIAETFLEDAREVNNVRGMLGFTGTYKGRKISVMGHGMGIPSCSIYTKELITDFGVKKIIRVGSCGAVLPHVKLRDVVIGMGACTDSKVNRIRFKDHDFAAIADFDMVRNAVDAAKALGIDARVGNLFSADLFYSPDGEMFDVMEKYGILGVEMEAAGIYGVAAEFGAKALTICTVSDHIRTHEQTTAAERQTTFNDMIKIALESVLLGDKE
Kind of data set: HPLC inosine phosphorolysis assay with recombinant enzyme, non-competitive inhibition kinetics. The class given is biochemical.

Substrate in the data set “purified protein”: OC[C@H]1O[C@@H](n2cnc3c(O)ncnc32)[C@H](O)[C@@H]1O
Put plainly: purified protein. In kind it is biochemical, Escherichia coli. Particulars: phosphate active site.

This note sets out measurements from article PMC9114674, “Synthesis of New 5′-Norcarbocyclic Aza/Deaza Purine Fleximers - Noncompetitive Inhibitors of E.coli Purine Nucleoside Phosphorylase” (Frontiers in Chemistry, 2022).

As a reminder, the Ki is the equilibrium dissociation constant of an inhibitor or competing ligand from its target. `Nc1ccncc1-c1cnn([C@@H]2C[C@H](O)[C@@H](O)[C@H]2O)c1` [compound 1, 1-(2′,3′,4′-Trihydroxycyclopent-1′-yl)-4-(4-aminopyridin-3-yl)pyrazole]: in data set [1], the Ki was found to be 17 ± 4 mM. Still for that read-out and setting: in the case of `Nc1ncccc1-c1cnn([C@@H]2C[C@H](O)[C@@H](O)[C@H]2O)c1` [compound 2, 1-(2′,3′,4′-Trihydroxycyclopent-1′-yl)-4-(2-aminopyridin-3-yl)pyrazole] it was 14 ± 1 mM; in that of `Nc1ncncc1-c1cnn([C@@H]2C[C@H](O)[C@@H](O)[C@H]2O)c1` [compound 3, 1-(2′,3′,4′-Trihydroxycyclopent-1′-yl)-4-(4-aminopyrimidin-3-yl)pyrazole], 24 ± 3 mM.

B1: E. coli purine nucleoside phosphorylase (PNP) (Escherichia coli K-12) (protein)
chain: T1 sequence (P0ABP8 2-239)
One may read the Km as the substrate concentration at which the rate is half of its maximum. As a reminder, the kcat is the number of substrate molecules converted per active site and unit of time at saturation. B1: in “purified protein”, the Km was determined as 130 ± 10 µM and the kcat is 900 ± 60 s⁻¹.
